EC50 data for 17 compounds are collected here from patent publication US20250163066A1, “PROTACs of MALT1” (TEGID THERAPEUTICS, INC., priority 2022, published 2025).

For orientation: EC50 means the concentration giving half of the maximal effect.

The target in the assay is MALT1 (Homo sapiens (Human), UniProt Q9UDY8). The assay is described as follows: MALT1 enzymatic activity inhibition (fluorescence, Ac-LRSR-AMC substrate). The class given is biochemical. The following applies: recombinant MALT1 1.5 ng/μl, Ac-LRSR-AMC 1 μM. As for the experimental part: Compound activity was determined using recombinant MALT1 protein (Creative Biomart, Cat #MALT1-28H) and Ac-LRSR-AMC Substrate in an in vitro enzymatic reaction. The enzymatic assay used to determine activity was a Fluorescence assay using a Microplate Reader ClarioStar Plus. The enzymatic reaction was carried out in 1× Assay Buffer (50 mM HEPES pH 7.2-7.4, 100 mM NaCl, 900 mM Sodium citrate, 10 mM DTT). The compounds were dispensed on a 384-well Diamond Well Plate (Axygen, Cat #P-384-120SQ-C—S) using the Biomek FX liquid handling system at 100× solutions of compounds in DMSO. 2.5×MALT1 mix (final concentration 1.5 ng/μl of MALT1) was prepared in 1× Assay Buffer and 8 μl of mixture per well were added into 384w white Reaction Plates with NBS (Corning, Cat #4513). 8 μl of 1× Assay Buffer were used for negative control. Plates were centrifuged for 1 min at 200 g. Next, the compounds were added to Reaction plates using Biomek station via following steps: 1 μl of 100× compounds (in DMSO) was mixed thoroughly with 19 μl of 1× Assay Buffer, then 4 μl of this mixture were added to Reaction plates with 8 μl of MALT1 mix. Plates were centrifuged for 1 min at 200 g and incubated for 10 minutes at rt. Next, 2.5× Ac-LRSR-AMC mix (final concentration 1 μM of Ac-LRSR-AMC) was prepared in 1× Assay Buffer and 8 μl of mixture per well were added to Reaction Plates using Biomek station. Plates were centrifuged for 1 min at 200 g, then the fluorescence was measured immediately using Microplate Reader. Plates were incubated for 30 minutes at 37° C., then for 30 minutes at rt. The fluorescence was measured after the whole incubation using Microplate Reader. The reaction signal was calculated as the subtraction of the first data set values from the second. The % inhibition was then used to calculate the IC50 values. The results of this assay are shown in the Table A. The values of EC50 shown as a letters A-E, where: A≤0.2 μM; 0.2 μM<B≤0.5 μM; 0.5 μM<C≤1 μM; 1<D≤5 μM; E >5.
Sequence of MALT1 (Q9UDY8 whole entry): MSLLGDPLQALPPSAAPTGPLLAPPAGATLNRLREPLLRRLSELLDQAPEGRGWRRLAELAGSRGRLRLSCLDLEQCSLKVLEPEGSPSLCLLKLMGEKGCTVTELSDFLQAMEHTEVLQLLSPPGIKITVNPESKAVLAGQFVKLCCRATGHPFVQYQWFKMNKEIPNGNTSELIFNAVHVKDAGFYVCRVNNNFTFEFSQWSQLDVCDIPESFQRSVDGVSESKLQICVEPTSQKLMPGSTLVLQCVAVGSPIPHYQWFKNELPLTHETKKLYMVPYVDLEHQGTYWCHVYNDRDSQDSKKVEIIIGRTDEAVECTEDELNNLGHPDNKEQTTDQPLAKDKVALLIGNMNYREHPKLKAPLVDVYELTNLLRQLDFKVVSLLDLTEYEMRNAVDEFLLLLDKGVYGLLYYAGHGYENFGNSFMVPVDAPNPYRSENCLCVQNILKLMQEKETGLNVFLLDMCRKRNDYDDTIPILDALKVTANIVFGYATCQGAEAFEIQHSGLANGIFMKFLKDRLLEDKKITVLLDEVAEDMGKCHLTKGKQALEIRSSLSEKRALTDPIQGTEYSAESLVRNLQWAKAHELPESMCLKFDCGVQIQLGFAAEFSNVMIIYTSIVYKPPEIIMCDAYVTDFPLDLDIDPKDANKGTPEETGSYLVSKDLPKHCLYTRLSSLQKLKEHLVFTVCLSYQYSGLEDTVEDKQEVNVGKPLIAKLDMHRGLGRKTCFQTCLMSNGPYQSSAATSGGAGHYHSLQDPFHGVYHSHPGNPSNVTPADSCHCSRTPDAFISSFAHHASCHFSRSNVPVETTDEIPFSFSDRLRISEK
For `Cc1cc(NC(=O)Nc2cnc3ccnn3c2C2CCCO2)cnc1N1CCN(C(=O)CCOCCOCCN2CCN(c3ccc4c(c3)CN(C3CCC(=O)NC3=O)C4=O)CC2)CC1` (centres unmarked) [Compound 31, 1-[6-[4-[3-[2-[2-[4-[2-(2,6-dioxo-3-piperidyl)-1-oxo-isoindolin-5-yl]piperazin-1-yl]ethoxy]ethoxy]propanoyl]piperazin-1-yl]-5-methyl-3-pyridyl]-3-(7-tetrahydrofuran-2-ylpyrazolo[1,5-a]pyrimidin-6-yl)urea], the concentration giving a half-maximal response (EC50) was greater than 5 µM.

Regarding `O=C(CCOCCOCCN1CCN(c2ccc3c(c2)CN(C2CCC(=O)NC2=O)C3=O)CC1)NCCOc1ncc(Cl)cc1NC(=O)Nc1cnc2ccnn2c1C1CCCO1` (centres unmarked) [Compound 32, N-[2-[[5-chloro-3-[(7-tetrahydrofuran-2-ylpyrazolo[1,5-a]pyrimidin-6-yl)carbamoylamino]-2-pyridyl]oxy]ethyl]-3-[2-[2-[4-[2-(2,6-dioxo-3-piperidyl)-1-oxo-isoindolin-5-yl]piperazin-1-yl]ethoxy]ethoxy]propanamide], the concentration for a half-maximal effect (EC50) fell in the range of 1 to 5 µM.

For `Cc1cc(NC(=O)Nc2cnc3ccnn3c2C2CCCO2)cnc1-n1cc(C(=O)NCCOCCOCCC(=O)N2CCN(c3ccc4c(c3)CN(C3CCC(=O)NC3=O)C4=O)CC2)cn1` (centres unmarked) [Compound 33, N-[2-[2-[3-[4-[2-(2,6-dioxo-3-piperidyl)-1-oxo-isoindolin-5-yl]piperazin-1-yl]-3-oxo-propoxy]ethoxy]ethyl]-1-[3-methyl-5-[(7-tetrahydrofuran-2-ylpyrazolo[1,5-a]pyrimidin-6-yl)carbamoylamino]-2-pyridyl]pyrazole-4-carboxamide], the EC50 lay within 1 to 5 µM.

Consider `Cc1cc(NC(=O)Nc2cnc3ccnn3c2C2CCCO2)cnc1N1CCN(C(=O)CCOCCN2CCN(c3ccc4c(c3)CN(C3CCC(=O)NC3=O)C4=O)CC2)CC1` (centres unmarked) [Compound 35, 1-[6-[4-[3-[2-[4-[2-(2,6-dioxo-3-piperidyl)-1-oxo-isoindolin-5-yl]piperazin-1-yl]ethoxy]propanoyl]piperazin-1-yl]-5-methyl-3-pyridyl]-3-(7-tetrahydrofuran-2-ylpyrazolo[1,5-a]pyrimidin-6-yl)urea], for which the EC50 was greater than 5 µM.

Take `O=C(CCOCCN1CCN(c2ccc3c(c2)CN(C2CCC(=O)NC2=O)C3=O)CC1)NCCOc1ncc(Cl)cc1NC(=O)Nc1cnc2ccnn2c1C1CCCO1` (centres unmarked) [Compound 36, N-[2-[[5-chloro-3-[(7-tetrahydrofuran-2-ylpyrazolo[1,5-a]pyrimidin-6-yl)carbamoylamino]-2-pyridyl]oxy]ethyl]-3-[2-[4-[2-(2,6-dioxo-3-piperidyl)-1-oxo-isoindolin-5-yl]piperazin-1-yl]ethoxy]propanamide]: the 50% effective concentration (EC50) lay within 0.5 to 1 µM.

Turning to `O=C(CCOCCN1CCN(c2ccc3c(c2)CN(C2CCC(=O)NC2=O)C3=O)CC1)NCCOc1ncc(Cl)cc1NC(=O)Nc1cnc2ccnn2c1C1CCOC1` (centres unmarked) [Compound 39, N-[2-[[5-chloro-3-[(7-tetrahydrofuran-3-ylpyrazolo[1,5-a]pyrimidin-6-yl)carbamoylamino]-2-pyridyl]oxy]ethyl]-3-[2-[4-[2-(2,6-dioxo-3-piperidyl)-1-oxo-isoindolin-5-yl]piperazin-1-yl]ethoxy]propanamide], the EC50 is 0.5 to 1 µM.

Consider `O=C(CCOCCOCCN1CCN(c2ccc3c(c2)CN(C2CCC(=O)NC2=O)C3=O)CC1)NCCOc1ncc(Cl)cc1NC(=O)Nc1cnc2ccnn2c1C1CCOC1` (centres unmarked) [Compound 40, N-[2-[[5-chloro-3-[(7-tetrahydrofuran-3-ylpyrazolo[1,5-a]pyrimidin-6-yl)carbamoylamino]-2-pyridyl]oxy]ethyl]-3-[2-[2-[4-[2-(2,6-dioxo-3-piperidyl)-1-oxo-isoindolin-5-yl]piperazin-1-yl]ethoxy]ethoxy]propanamide], for which the EC50 is 0.5 to 1 µM.

With `O=C(CCOCCOCCN1CCN(c2ccc3c(c2)CN(C2CCC(=O)NC2=O)C3=O)CC1)NCCOc1ncc(Cl)cc1NC(=O)Nc1cnc2ccnn2c1C1CCOCC1` (centres unmarked) [Compound 41, N-[2-[[5-chloro-3-[(7-tetrahydropyran-4-ylpyrazolo[1,5-a]pyrimidin-6-yl)carbamoylamino]-2-pyridyl]oxy]ethyl]-3-[2-[2-[4-[2-(2,6-dioxo-3-piperidyl)-1-oxo-isoindolin-5-yl]piperazin-1-yl]ethoxy]ethoxy]propanamide], the EC50 was 0.5 to 1 µM.

For the compound `O=C(CCOCCN1CCN(c2ccc3c(c2)CN(C2CCC(=O)NC2=O)C3=O)CC1)NCCOc1ncc(Cl)cc1NC(=O)Nc1cnc2ccnn2c1C1CCOCC1` (centres unmarked) [Compound 42, N-[2-[[5-chloro-3-[(7-tetrahydropyran-4-ylpyrazolo[1,5-a]pyrimidin-6-yl)carbamoylamino]-2-pyridyl]oxy]ethyl]-3-[2-[4-[2-(2,6-dioxo-3-piperidyl)-1-oxo-isoindolin-5-yl]piperazin-1-yl]ethoxy]propanamide], the EC50 was in the range of 0.5 to 1 µM.

On to `O=C(CCOCCN1CCN(c2ccc3c(c2)CN(C2CCC(=O)NC2=O)C3=O)CC1)NCCOc1ccc(Cl)cc1NC(=O)Nc1cnc2ccnn2c1C1CCCC1` (centres unmarked) [Compound 43, N-[2-[4-chloro-2-[(7-cyclopentylpyrazolo[1,5-a]pyrimidin-6-yl)carbamoylamino]phenoxy]ethyl]-3-[2-[4-[2-(2,6-dioxo-3-piperidyl)-1-oxo-isoindolin-5-yl]piperazin-1-yl]ethoxy]propanamide], for which the EC50 lay within 1 to 5 µM.

As for `O=C(CCOCCN1CCN(c2ccc3c(c2)CN(C2CCC(=O)NC2=O)C3=O)CC1)NCCOc1ncc(Cl)cc1NC(=O)Nc1cnc2ccnn2c1C1CCCCC1` (centres unmarked) [Compound 44], the concentration giving a half-maximal response (EC50) lay within 1 to 5 µM.

Turning to `O=C(CCOCCN1CCN(c2ccc3c(c2)CN(C2CCC(=O)NC2=O)C3=O)CC1)NCCNC(=O)C1CCCN1C(=O)Nc1cnc2ccnn2c1C1CCCC1` (centres unmarked) [Compound 45, N1-(7-cyclopentylpyrazolo[1,5-a]pyrimidin-6-yl)-N2-[2-[3-[2-[4-[2-(2,6-dioxo-3-piperidyl)-1-oxo-isoindolin-5-yl]piperazin-1-yl]ethoxy]propanoylamino]ethyl]pyrrolidine-1,2-dicarboxamide], the EC50 was greater than 5 µM.

`O=C(CCOCCN1CCN(c2ccc3c(c2)CN(C2CCC(=O)NC2=O)C3=O)CC1)NCCNC(=O)[C@@H]1C[C@@H](O)CN1C(=O)Nc1cnc2ccnn2c1C1CCCC1` (stereo partly drawn) [Compound 46, (2S,4R)-N1-(7-cyclopentylpyrazolo[1,5-a]pyrimidin-6-yl)-N2-[2-[3-[2-[4-[2-(2,6-dioxo-3-piperidyl)-1-oxo-isoindolin-5-yl]piperazin-1-yl]ethoxy]propanoylamino]ethyl]-4-hydroxy-pyrrolidine-1,2-dicarboxamide]: the EC50 was greater than 5 µM.

Consider `O=C(CCOCCOCCN1CCN(c2ccc3c(c2)CN(C2CCC(=O)NC2=O)C3=O)CC1)NCCNC(=O)[C@@H]1C[C@@H](O)CN1C(=O)Nc1cnc2ccnn2c1C1CCCC1` (stereo partly drawn) [Compound 47, (2S,4R)-N1-(7-cyclopentylpyrazolo[1,5-a]pyrimidin-6-yl)-N2-[2-[3-[2-[2-[4-[2-(2,6-dioxo-3-piperidyl)-1-oxo-isoindolin-5-yl]piperazin-1-yl]ethoxy]ethoxy]propanoylamino]ethyl]-4-hydroxy-pyrrolidine-1,2-dicarboxamide], for which the concentration giving a half-maximal response (EC50) is greater than 5 µM.

As to `O=C(CCOCCOCCN1CCN(c2ccc3c(c2)CN(C2CCC(=O)NC2=O)C3=O)CC1)NCCNC(=O)C1CCCN1C(=O)Nc1cnc2ccnn2c1C1CCCC1` (centres unmarked) [Compound 48, N1-(7-cyclopentylpyrazolo[1,5-a]pyrimidin-6-yl)-N2-[2-[3-[2-[2-[4-[2-(2,6-dioxo-3-piperidyl)-1-oxo-isoindolin-5-yl]piperazin-1-yl]ethoxy]ethoxy]propanoylamino]ethyl]pyrrolidine-1,2-dicarboxamide], the EC50 is greater than 5 µM.

Consider `O=C(CCOCCOCCN1CCN(c2ccc3c(c2)CN(C2CCC(=O)NC2=O)C3=O)CC1)NCCOc1ccc(Cl)cc1NC(=O)Nc1cnc2ccnn2c1C1CCCC1` (centres unmarked) [Compound 49, N-[2-[4-chloro-2-[(7-cyclopentylpyrazolo[1,5-a]pyrimidin-6-yl)carbamoylamino]phenoxy]ethyl]-3-[2-[2-[4-[2-(2,6-dioxo-3-piperidyl)-1-oxo-isoindolin-5-yl]piperazin-1-yl]ethoxy]ethoxy]propanamide], for which the EC50 was 1 to 5 µM.

With `O=C(CCOCCN1CCN(c2ccc3c(c2)CN(C2CCC(=O)NC2=O)C3=O)CC1)NCCOc1ncc(Cl)cc1NC(=O)Nc1cn2ccnc2nc1C1CCCCC1` (centres unmarked) [Compound 50, N-[2-[[5-chloro-3-[(7-cyclohexylimidazo[1,2-a]pyrimidin-6-yl)carbamoylamino]-2-pyridyl]oxy]ethyl]-3-[2-[4-[2-(2,6-dioxo-3-piperidyl)-1-oxo-isoindolin-5-yl]piperazin-1-yl]ethoxy]propanamide], the EC50 was in the range of 1 to 5 µM.
